According to patent US8207345B2, “Tetrahydroquinolines for use as modulators of the mitotic motor protein Eg5” (Merck Patent GmbH, priority 2005, dated 2012):

Tested on: cells
Assay: cell cycle effect (G2/M), appended experiments
Assay type: cell-based

## N=C(N)c1ccc(OCCCCCOc2ccc(C(=N)N)cc2)cc1 [pentamidine]
  maintain cells in the G2/M cell cycle: maintain cells in the G2/M cell cycle
